Earlier results, collected in US20110287109A1 (MAX INTERNATIONAL, LLC, priority 2010, published 2011).

Columns and labels:
glutathione levels = conditions: mice, 8 mmol/kg i.p.
[1] = tested on: mice exposed to cyclophosphamide; conditions: 8 mmol/kg
[2] = tested on: acetaminophen hepatic and renal toxicity; conditions: mice, 2 g/kg
[3] = tested on: irradiation-induced bowel injury; conditions: mice, 1 g/kg
[4] = administered directly to humans
exercise capacity = conditions: healthy humans, orally, 8-10 g per day by an adult
ATP levels = conditions: dogs subjected to ischemia (heart attack model), about 3 g/day for at least 5 days

| Structure (SMILES) | increase of glutathione level in heart (glutathione levels; heart) [×] | increase of glutathione level in muscle tissue (glutathione levels; muscle tissue) [×] | delivery of protective amounts of cysteine [1] | protection against acetaminophen hepatic and renal toxicity [2] | protection against irradiation-induced bowel injury [3] | toxicity over wide dosage ranges [4] | exercise capacity (exercise capacity) | ATP levels (ATP levels) |
| --- | --- | --- | --- | --- | --- | --- | --- | --- |
| O=C(O)[C@@H]1CSC(C(O)C(O)C(O)CO)N1 (stereo partly drawn) [RibCys, 2(R,S)-D-ribo-(1′,2′,3′,4′-tetrahydroxybutyl)thiazolidine-4(R)-carboxylic acid] | 1.5 | 2.5 | deliver effective protective amounts of cysteine | protect mice against acetaminophen hepatic and renal toxicity | protect mice against irradiation-induced bowel injury | – | – | – |
| O=C[C@H](O)[C@H](O)[C@H](O)CO [ribose] | – | – | – | – | – | essentially non-toxic | increase exercise capacity | effectively restored and maintained ATP levels |
